Reference: US5476841A, “Inhibitors of herpes viral ribonucleotide reductase” (Bio-Mega/Boehringer Ingelheim Research Inc., priority 1994, dated 1995)
Where a SMILES comes first, the peptide text is derived from it. [ ]: non-standard residue; d: D form. The star is where a group is joined. Asp(3,3-(CH2)4) = N[C@H](C(=O)O)C1(C(=O)O)CCCC1; Dibenzylacetyl = O=C(C(Cc1ccccc1)Cc1ccccc1)*; Leu(γ-Me)ol = CC(C)(C)C[C@@H](CO)N*; tBuAla = CC(C)(C)C[C@H](N)C(=O)O; Tle = CC(C)(C)[C@H](N)C(=O)O; NMeV = CN[C@H](C(=O)O)C(C)C; X1 = CC[C@@H](N*)C(C)(C)C; Pyrrolidide = C1CCN(*)C1; NHCH2tBu = CC(C)(C)CN*

Experiments:
HSV-2 = assay: Inhibition of Herpes Simplex virus (HSV-2) replication in cell culture; assay type: cell-based; settings: BHK-21/C13 cells, serum starved, HSV-2 strain HG-52, 0.02 PFU/cell, 29 h incubation; read-out: EC50, concentration effecting a 50% inhibition of HSV-2 virus replication
Experimental: Inhibition of Herpes Simplex virus (HSV-2) Replication in Cell Culture
BHK-21/C13 cells (ATCC CCL 10) are incubated for two days in 150 cm^2 T-flasks (1.5×10^6 cells/flask) with alpha-MEM medium (Gibco Canada Inc., Burlington, Ontario, Canada) supplemented with 8% (v/v) fetal bovine serum (FBS, Gibco Canada Inc.). The cells are trypsinized and then transferred to fresh media in a 24 well plate to give 2.5×10^5 cells in 750 μL of media per well. The cells are incubated at 37° for a period of 6 h to allow them to adhere to the plate. Thereafter, the cells are washed once with 500 μL of alpha-MEM supplemented with 0.5% (v/v) FBS and then incubated with 750 μL of the same media (low serum) for 3 days. After this period of serum starvation, the low serum medium is removed and the cells are incubated in 500 μL of BBMT for 2 to 3 hours. {BBMT medium is described by P. Brazeau et al., Proc. Natl. Acad. Sci. USA, 79, 7909 (1982).} Thereafter, the cells are infected with HSV-2 (multiplicity of infection=0.02 PFU/cell) in 100 μL of BBMT medium. (Note: The HSV-2 used was strain HG-52, see Y. Langelier and G. Buttin, J. Gen. Virol., 57, 21 (1981); the virus was stored at -80°.) Following 1 h of virus adsorption at 37°, the media is removed and the cells are washed with BBMT (3×250 μL). The cells in each well are incubated with or without (control) appropriate concentrations of the test agent dissolved in 200 μL of BBMT medium. After 29 h of incubation at 37°, the infected cells are harvested by first freezing the plate at -80°, followed by thawing. The cells in each well are scraped off the surface of the well with the help of the melting ice fragments. After complete thawing, the cell suspensions are collected and each well is rinsed with 150 μL of BBMT medium. The viral sample (suspension plus washing) is sonicated gently for 4 min at 4°. Cell debris are removed by centrifugation (1000 times gravity for 10 minutes at 4°). The supernatant is collected and stored at -80° until determination of viral titer.
Viral titration was performed by a modification of the colorimetric assay method of M. Langlois et al., Journal of Biological Standardization, 14, 201 (1986), and which is described in detail by R. Deziel and Y. Guindon, supra.
Accordingly, the percentage of virus growth inhibition can be determined for the various concentrations of the test agent, and the concentration of the test agent (i.e. the peptide of formula 1) effecting a 50% inhibition of virus replication, i.e. the EC50, can be calculated.

[1] = target: T1, HSV-1 ribonucleotide reductase (Human herpesvirus 1, UniProt P08543); assay: Inhibition of Herpes Simplex virus (HSV-1) ribonucleotide reductase; assay type: biochemical; settings: partially purified enzyme from HSV-1 strain F infected BHK-21/C13 cells; mean of four assays; read-out: IC50, concentration causing a 50% reduction of the HSV-1 ribonucleotide reductase activity
T1 construct: obtained from quiescent BHK-21/C13 cells infected with strain F HSV-1 virus; made in house; host or cells: quiescent BHK-21/C13 cells infected with HSV-1 strain F (virus-encoded enzyme, partially purified)
From the text: Inhibition of Herpes Simplex virus (HSV-1) Ribonucleotide Reductase
HSV-1 ribonucleotide reductase (partially purified) was obtained from quiescent BHK-21/C13 cells infected with strain F HSV-1 virus at 10 plaque forming units/cell as described by E. A. Cohen et al., J. Gen. Virol., 66, 733 (1985).
The assay described by P. Gaudreau et al., J. Biol. Chem., 262, 12413 (1987), is used to evaluate the capability of the compounds of this invention to inhibit HSV-1 ribonucleotide reductase activity. Results are expresed as the concentration of the compound producing 50% of the maximal inhibition (IC50) of enzyme activity. The number of units of the enzyme preparation used in each assay was constant, based on the specific activity of the enzyme preparation. The results are relative to the activity obtained in control experiments without the test compound and represent the mean of four assays that varied less than 10% with each other.

T1 sequence (P08543 whole entry): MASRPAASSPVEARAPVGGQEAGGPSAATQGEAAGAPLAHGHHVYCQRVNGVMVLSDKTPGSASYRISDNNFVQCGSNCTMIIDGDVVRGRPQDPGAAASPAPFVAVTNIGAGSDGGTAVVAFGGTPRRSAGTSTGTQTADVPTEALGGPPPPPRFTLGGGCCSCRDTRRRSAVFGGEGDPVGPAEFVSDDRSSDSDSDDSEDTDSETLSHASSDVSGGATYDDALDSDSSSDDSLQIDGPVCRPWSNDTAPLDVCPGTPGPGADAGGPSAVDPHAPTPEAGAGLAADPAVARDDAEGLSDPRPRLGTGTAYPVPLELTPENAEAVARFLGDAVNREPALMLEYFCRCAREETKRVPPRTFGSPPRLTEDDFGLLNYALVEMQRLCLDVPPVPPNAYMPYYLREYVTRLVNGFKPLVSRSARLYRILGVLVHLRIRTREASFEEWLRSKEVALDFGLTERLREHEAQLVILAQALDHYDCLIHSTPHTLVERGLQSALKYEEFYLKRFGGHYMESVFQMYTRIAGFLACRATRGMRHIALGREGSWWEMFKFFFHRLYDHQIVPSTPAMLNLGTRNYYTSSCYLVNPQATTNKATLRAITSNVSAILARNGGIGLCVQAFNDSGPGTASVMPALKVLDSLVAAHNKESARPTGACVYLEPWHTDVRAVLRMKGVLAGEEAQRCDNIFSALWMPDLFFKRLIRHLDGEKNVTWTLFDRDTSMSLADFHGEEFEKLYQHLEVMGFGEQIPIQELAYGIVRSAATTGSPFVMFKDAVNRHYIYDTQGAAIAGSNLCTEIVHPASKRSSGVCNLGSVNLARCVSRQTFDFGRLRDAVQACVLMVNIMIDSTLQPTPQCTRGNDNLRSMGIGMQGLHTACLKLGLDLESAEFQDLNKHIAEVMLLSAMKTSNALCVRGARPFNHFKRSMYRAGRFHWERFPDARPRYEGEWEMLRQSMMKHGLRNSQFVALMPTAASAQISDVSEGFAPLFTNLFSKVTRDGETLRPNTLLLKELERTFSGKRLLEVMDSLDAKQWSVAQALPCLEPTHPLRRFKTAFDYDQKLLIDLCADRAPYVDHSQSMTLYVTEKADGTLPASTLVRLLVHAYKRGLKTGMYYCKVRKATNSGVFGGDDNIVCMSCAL

SMILES	EC50 (HSV-2)	IC50 [1]
CC[C@@H](NC(=O)[C@@H](NC(=O)[C@H](CC(=O)N1CCCC1)NC(=O)[C@@H](NC(=O)[C@H](C(C)C)N(C)C(=O)C(Cc1ccccc1)Cc1ccccc1)C(C)(C)C)C1(C(=O)O)CCCC1)C(C)(C)C [(PhCH2)2 CHC (O)--(N-Me)-Val-Tbg-Asp(pyrrolidino)-Asp(cyPn)-NH--(R)--CH(C2 H5)C(CH3)3] (Dibenzylacetyl-[NMeV][Tle]D(Pyrrolidide)[Asp(3,3-(CH2)4)]-X1)	< 2000 nM	–
CC(C)[C@@H](C(=O)N[C@H](C(=O)N[C@@H](CC(=O)N1CCCC1)C(=O)N[C@H](C(=O)N[C@@H](CC(C)(C)C)C(=O)O)C1(C(=O)O)CCCC1)C(C)(C)C)N(C)C(=O)C(Cc1ccccc1)Cc1ccccc1 [(PhCH2)2 CHC(O)--(N-Me)-Val-Tbg-Asp (pyrrolidino)-Asp(cyPn)-γMeLeu-OH] (Dibenzylacetyl-[NMeV][Tle]D(Pyrrolidide)[Asp(3,3-(CH2)4)][tBuAla]-OH)	6000 nM	–
CC(C)[C@@H](C(=O)N[C@H](C(=O)N[C@@H](CC(=O)N1CCCC1)C(=O)N[C@H](C(=O)NCC(C)(C)C)C1(C(=O)O)CCCC1)C(C)(C)C)N(C)C(=O)C(Cc1ccccc1)Cc1ccccc1 [(PhCH2)2 CHC(O)--(N-Me)-Val-Tbg-Asp(pyrrolidino)-Asp(cyPn)-NHCH2 C(CH3)3] (Dibenzylacetyl-[NMeV][Tle]D(Pyrrolidide)[Asp(3,3-(CH2)4)]-NHCH2tBu)	1600 nM	–
CC(C)[C@@H](C(=O)N[C@H](C(=O)N[C@@H](CC(=O)N1CCCC1)C(=O)N[C@H](C(=O)N[C@H](CO)CC(C)(C)C)C1(C(=O)O)CCCC1)C(C)(C)C)N(C)C(=O)C(Cc1ccccc1)Cc1ccccc1 [Example 3, (PhCH2)2 CHC(O)--(N-Me)-Val-Tbg-Asp(pyrrolidino)-Asp(cyPn)-γMeLeucinol] (Dibenzylacetyl-[NMeV][Tle]D(Pyrrolidide)[Asp(3,3-(CH2)4)]-{Leu(γ-Me)ol})	3000 nM	170 nM
